The target in assay [1] is cGMP-PDE (Homo sapiens, UniProt O76074). The experiment in a line: Inhibitory effect on cGMP-PDE. It counts as biochemical. Particulars: PDE IC isolated from human platelets; substrate 3H-cGMP; tested as 2HCl salt (2, 2(3)), CH3SO3H salt (2(5), 2(7), 5, 6(1)), free base (4, 7, 8).
Assay [2] deals with TXA2 synthetase. The experiment in a line: Inhibitory effect on TXA2 synthetase (TXB2 synthesis in A23187-stimulated whole blood). The assay is classed as cell-based, Male Wistar rats. Particulars: at 10 μM; rat heparinized whole blood, Ca ionophore A23187, TXB2 by EIA; CH3SO3H salt. The protocol: Male Wistar rats were starved overnight. Five hundreds microliter of heparinized (10 U/mL) whole blood was collected from abdominal aorta using polyethylene syringe (needle: 22 or 26 G). The blood freshly drawn from animal was preincubated with 5 μL of test compound at 37° C. Five minutes later, 2.5 μL of 6 mM of Ca ionophore A23187 (final concentration of 30 μM) was added into tube, and incubation mixture was further incubated for 15 min. The reaction was terminated by centrifugation of tubes at 12,000 rpm for 2 min. TXB2 content in the supernatant was determined by EIA as follows.
One milliliter of 0.5M glycine-HCl buffer (pH 3.2) was added to 100 μL of sample. The samples were mixed well and centrifuged at 1,700 G for 10 min. at 4° C. The extracted supernatant was applied to a SEP-PAK (registered Trade Mark) C18 cartridge (Waters Assoc.). After washing with 10 mL of distilled water followed by 10 mL each of 15% ethanol and petroleum ether, the sample was eluted with 3 mL of ethyl acetate. The ethyl acetate fraction was evaporated to dryness under gentle N2 stream and the residue was dissolved in EIA buffer (final volume of 1 mL) following the addition of 300 μL of 0.01M NaHCO3 --NaOH buffer (pH 10.0). EIA for TXB2 was carried out according to a legend attached to the kit (Chyman Chemical Co., Inc.). Overall recovery of TXB2 in this extraction procedure was 90%. […]

As to `c1ccc(CNc2cc(-c3ccccc3)nn3cnnc23)cc1` [Example 8], the IC50 in assay [1] amounted to 940 nM.
On to `c1ccc(CNc2cc(-c3ccccc3)nc3ncnn23)cc1` [Example 7], for which the IC50 in assay [1] was determined as 3100 nM.
Regarding `O=C(O)C1CCN(c2nc3c(c(NCc4ccc5c(c4)OCO5)n2)CSCC3)CC1` [Example 4], the IC50 in assay [1] stood at 380 nM.
For the molecule `Cc1csc2nc(-n3ccnc3)nc(NCc3ccccc3)c12` [Example 2, 4-benzylamino-2-(1-imidazolyl)-5-methylthieno[2,3-d]pyrimidine dihydrochloric acid], the IC50 in assay [1] was found to be 125 nM.
For `c1ccc(CNc2nc(-n3ccnc3)nc3c2SCCC3)cc1` [Example 2(3)], the concentration for half-maximal inhibition (IC50) in assay [1] was found to be 100 nM.
Still for that read-out and setting: next, `[O-][S+]1CCCc2nc(-n3ccnc3)nc(NCc3ccccc3)c21` (stereo not shown) [Example 5]: 3200 nM.
With `c1cn(-c2nc3c(c(NCc4ccc5c(c4)OCO5)n2)CSCC3)cn1` [Example 2(7)], in assay [2], the “Inhibitory activity on TXA2 synthetase” value was 63%. In assay [1], the IC50 was 24 nM.
With `c1ccc(CNc2nc(-n3ccnc3)nc3c2CSCC3)cc1` [Example 2(5)], in assay [1], the IC50 came to 100 nM.
In the case of `O=S1(=O)CCc2nc(-n3ccnc3)nc(NCc3ccccc3)c2C1` [Example 6(1)], the IC50 in assay [1] stood at 380 nM.

Usually IC50 stands for the midpoint of a concentration-inhibition curve.

Values taken from patent US5869486A, “Fused pyrimidines and pyriazines as pharmaceutical compounds” (Ono Pharmaceutical Co., Ltd., priority 1995, dated 1999).
